# Like-named read-outs stand apart in the source and are kept apart here.
# Tests used:
# Format in all cases: cell-based
# Burkholderia cepacia = assay: MIC vs non-fermenting organisms: Burkholderia cepacia; conditions: B. cepacia
# Experimental: (§1) Bacterial isolates were cultivated from −70° C. frozen stocks by two consecutive overnight passages at 35° C. in ambient air on 5% blood agar (Remel, Lenexa, Kans.). Clinical isolates tested were from a collection composed of isolates collected during clinical trials and recent clinical isolates obtained from various geographically diverse hospitals in the US. Quality control and primary panel strains were from the American Type Culture Collection (ATCC; Rockville, Md.), with the exception of P. aeruginosa PAO200, a strain with a deletion of the mexABoprM genes that was received from Dr. H. Schweizer.
# (§2) Minimum Inhibitory Concentrations (MICs) were determined by the broth microdilution method in accordance with the National Committee for Clinical Laboratory Standards (NCCLS) guidelines. In brief, organism suspensions were are adjusted to a 0.5 McFarland standard to yield a final inoculum between 3×10^5 and 7×10^5 colony-forming units (CFU)/mL. Drug dilutions and inocula were made in sterile, cation adjusted Mueller-Hinton Broth (Remel). An inoculum volume of 100 μl was added to wells containing 100 μl of broth with 2-fold serial dilutions of drug. All inoculated microdilution trays were incubated in ambient air at 35° C. for 18-24 hours. Following incubation, the lowest concentration of the drug that prevented visible growth was recorded as the MIC.
# [1] = system: Stenotrophomonas maltophilia; assay: MIC vs non-fermenting organisms: Stenotrophomonas maltophilia; conditions: Stenotrophomonas maltophilia, S. malt., read-out: MIC
# Experimental: as §1, §2
# Klebsiella pneumoniae = assay: MIC vs enteric organisms: Klebsiella pneumoniae; conditions: K. pneu.
# Experimental: as §1, §2
# [2] = system: Pseudomonas aeruginosa cystic fibrosis isolate 3236; assay: MIC vs cystic fibrosis isolate of P. aeruginosa 3236 (sensitive to most antibacterials); conditions: strain 3236, Sensitive
# Experimental: as §1, §2
# [3] = system: Pseudomonas aeruginosa cystic fibrosis isolate 2196; assay: MIC vs cystic fibrosis isolate of P. aeruginosa 2196 (resistant to ciprofloxacin); conditions: strain 2196, Cipro R
# Experimental: as §1, §2
# S. aureus 29213 = assay: MIC broth microdilution, standard panel: S. aureus 29213; conditions: Staphylococcus aureus, standard panel of organisms
# Experimental: as §1, with “Schweizer. […] Strain Z61 (ATCC 35151) is also hypersusceptible to antibacterials. It is thought that the hypersusceptibility of this strain is the result of increased permeability of its outer membrane (Angus B L et al, Antimicrobial Agents and Chemotherapy 1982 21,299-309: Outer membrane permeability in Pseudomonas aeruginosa: Comparison of a wild-type with an antibacterial-supersusceptible mutant).” for “Schweizer.”
# as §2, with “MIC. Performance of the assay was monitored by the use of laboratory quality-control strains against tobramycin, that has a defined MIC spectrum, in accordance with NCCLS guidelines.” for “MIC.”
# [4] = system: Pseudomonas aeruginosa cystic fibrosis isolate 3232; assay: MIC vs cystic fibrosis isolate of P. aeruginosa 3232 (Ceftaz. R); conditions: strain 3232, Ceftaz. R
# Proteus mirabilis = assay: MIC vs enteric organisms: Proteus mirabilis; conditions: P. mir.
# Experimental: as §1, §2
# E. coli 25922 = assay: MIC broth microdilution, standard panel: E. coli 25922; conditions: Escherichia coli, standard panel of organisms
# Experimental: as §1, with “Schweizer. […] Strain Z61 (ATCC 35151) is also hypersusceptible to antibacterials. It is thought that the hypersusceptibility of this strain is the result of increased permeability of its outer membrane (Angus B L et al, Antimicrobial Agents and Chemotherapy 1982 21,299-309: Outer membrane permeability in Pseudomonas aeruginosa: Comparison of a wild-type with an antibacterial-supersusceptible mutant).” for “Schweizer.”
# as §2, with “MIC. Performance of the assay was monitored by the use of laboratory quality-control strains against tobramycin, that has a defined MIC spectrum, in accordance with NCCLS guidelines.” for “MIC.”
# [5] = system: Pseudomonas aeruginosa cystic fibrosis isolate 3198; assay: MIC vs cystic fibrosis isolate of P. aeruginosa 3198 (sensitive to most antibacterials); conditions: strain 3198, Sensitive
# Experimental: as §1, §2
# [6] = system: Acinetobacter calcoaceticus; assay: MIC vs non-fermenting organisms: Acinetobacter calcoaceticus; conditions: Acinet. calc.
# Experimental: as §1, §2
# [7] = system: Pseudomonas aeruginosa cystic fibrosis isolate 3206; assay: microbe, parasite or virus in culture; conditions: strain 3206, MDR, LpxC inhibitors, MIC key class, read-out: MIC
# Experimental: as §1, §2
# [8] = system: Pseudomonas aeruginosa cystic fibrosis isolate 1145; assay: microbe, parasite or virus in culture; conditions: strain 1145, MDR, read-out: MIC
# Experimental: as §1, §2
# [9] = system: non-CF clinical isolates of P. aeruginosa; assay: MIC vs non-CF clinical isolates of P. aeruginosa; conditions: Pseudomonas aeruginosa
# Experimental: as §1, with “Schweizer. […] Strain Z61 (ATCC 35151) is also hypersusceptible to antibacterials. It is thought that the hypersusceptibility of this strain is the result of increased permeability of its outer membrane (Angus B L et al, Antimicrobial Agents and Chemotherapy 1982 21,299-309: Outer membrane permeability in Pseudomonas aeruginosa: Comparison of a wild-type with an antibacterial-supersusceptible mutant).” for “Schweizer.”
# as §2, with “MIC. Performance of the assay was monitored by the use of laboratory quality-control strains against tobramycin, that has a defined MIC spectrum, in accordance with NCCLS guidelines.” for “MIC.”
# Klebsiella oxytoca = assay: MIC vs enteric organisms: Klebsiella oxytoca; conditions: K. oxy.
# Experimental: as §1, §2
# Enterobacter aerogenes = assay: MIC vs enteric organisms: Enterobacter aerogenes; conditions: Klebsiella aerogenes, E. aer.
# Experimental: as §1, §2
# Enterobacter cloacae = assay: MIC vs enteric organisms: Enterobacter cloacae; conditions: E. clo.
# Experimental: as §1, §2
# Alcaligenes xylosoxidans = assay: MIC vs non-fermenting organisms: Alcaligenes xylosoxidans; conditions: Achromobacter xylosoxidans, Alcal. xyl
# Experimental: as §1, §2
# [10] = system: Pseudomonas aeruginosa cystic fibrosis isolate 3317; assay: MIC vs cystic fibrosis isolate of P. aeruginosa 3317 (resistant to aztreonam); conditions: strain 3317, Aztr. R
# Experimental: as §1, §2
# P. aeruginosa 27853 = assay: MIC broth microdilution, standard panel: P. aeruginosa 27853; conditions: Pseudomonas aeruginosa, standard panel of organisms
# Experimental: as §1, with “Schweizer. […] Strain Z61 (ATCC 35151) is also hypersusceptible to antibacterials. It is thought that the hypersusceptibility of this strain is the result of increased permeability of its outer membrane (Angus B L et al, Antimicrobial Agents and Chemotherapy 1982 21,299-309: Outer membrane permeability in Pseudomonas aeruginosa: Comparison of a wild-type with an antibacterial-supersusceptible mutant).” for “Schweizer.”
# as §2, with “MIC. Performance of the assay was monitored by the use of laboratory quality-control strains against tobramycin, that has a defined MIC spectrum, in accordance with NCCLS guidelines.” for “MIC.”
# Escherichia coli = assay: MIC vs enteric organisms: Escherichia coli clinical isolates
# Experimental: as §1, §2
# [11] = system: Pseudomonas aeruginosa cystic fibrosis isolate 3224; assay: MIC vs cystic fibrosis isolate of P. aeruginosa 3224; conditions: strain 3224, Tobra R
# Experimental: as §1, §2
# Serratia marcescens = assay: MIC vs enteric organisms: Serratia marcescens; conditions: S. marc.
# Experimental: as §1, §2
# [12] = system: P. aeruginosa PAO200 mexAB; assay: MIC broth microdilution, standard panel: P. aeruginosa PAO200 mexAB; conditions: Pseudomonas aeruginosa, PAO200MEXAB, read-out: MIC P. aeruginosa PAO200 mexAB
# Experimental: as §1, with “Schweizer. […] Strain Z61 (ATCC 35151) is also hypersusceptible to antibacterials. It is thought that the hypersusceptibility of this strain is the result of increased permeability of its outer membrane (Angus B L et al, Antimicrobial Agents and Chemotherapy 1982 21,299-309: Outer membrane permeability in Pseudomonas aeruginosa: Comparison of a wild-type with an antibacterial-supersusceptible mutant).” for “Schweizer.”
# as §2, with “MIC. Performance of the assay was monitored by the use of laboratory quality-control strains against tobramycin, that has a defined MIC spectrum, in accordance with NCCLS guidelines.” for “MIC.”
# [13] = Burkholderia cepacia, comparator antibacterials, read-out: MIC
# [14] = P. aer 12307, comparator antibacterials
# [15] = P. aer psa-6b, comparator antibacterials
structure (smiles),measurement,setting,value
"NC[C@H](NC(=O)c1ccc(C#Cc2ccccc2)cc1)C(=O)NO [Example 366, N-[(1S)-1-(aminomethyl)-2-(hydroxyamino)-2-oxoethyl]-4-(phenylethynyl)benzamide]",MIC,"Burkholderia cepacia; Burkholderia cepacia, MIC key class, read-out: MIC",6.25 to 50 µg/mL
same,MIC,[1]; MIC key class,6.25 to 50 µg/mL
same,MIC,Klebsiella pneumoniae; MIC key class,6.25 to 50 µg/mL
same,MIC,"[2]; LpxC inhibitors, MIC key class",< 6.25 µg/mL
same,MIC,"[3]; LpxC inhibitors, MIC key class",< 6.25 µg/mL
same,MIC,S. aureus 29213,> 50 µg/mL
same,MIC,"[4]; LpxC inhibitors, MIC key class",< 6.25 µg/mL
same,MIC,Proteus mirabilis; MIC key class,< 6.25 µg/mL
same,MIC,E. coli 25922,< 6.25 µg/mL
same,MIC,"[5]; LpxC inhibitors, MIC key class",< 6.25 µg/mL
same,MIC,[6]; MIC key class,> 50 µg/mL
same,MIC,[7],< 6.25 µg/mL
same,MIC,"[8]; LpxC inhibitors, MIC key class",< 6.25 µg/mL
same,MIC,"[9]; P. aer 12307, MIC key class",< 6.25 µg/mL
same,MIC,"[9]; P. aer 27853, MIC key class",< 6.25 µg/mL
same,MIC,"[9]; P. aer psa-6b, MIC key class",6.25 to 50 µg/mL
same,MIC,"[9]; PAO1, P. aer. PAO1, MIC key class",< 6.25 µg/mL
same,MIC,Klebsiella oxytoca; MIC key class,6.25 to 50 µg/mL
same,MIC,Enterobacter aerogenes; MIC key class,> 50 µg/mL
same,MIC,Enterobacter cloacae; MIC key class,< 6.25 µg/mL
same,MIC,Alcaligenes xylosoxidans; MIC key class,< 6.25 µg/mL
same,MIC,"[10]; LpxC inhibitors, MIC key class",< 6.25 µg/mL
same,MIC,P. aeruginosa 27853,< 6.25 µg/mL
same,MIC,"Escherichia coli; Escherichia coli, E. coli 1619, MIC key class, read-out: MIC",< 6.25 µg/mL
same,MIC,"Escherichia coli; Escherichia coli, E. coli 2788, MIC key class, read-out: MIC",< 6.25 µg/mL
same,MIC,"[11]; LpxC inhibitors, MIC key class",< 6.25 µg/mL
same,MIC,Serratia marcescens; MIC key class,< 6.25 µg/mL
same,MIC,[12],< 6.25 µg/mL
"C[C@@H](O)[C@H]1C(=O)N2C(C(=O)O)=C(S[C@@H]3CN[C@H](C(=O)N(C)C)C3)[C@H](C)[C@H]12 [Meropenem, meropenem, reference compound]",MIC,Burkholderia cepacia; [13],4 µg/mL
same,MIC,[1]; comparator antibacterials,64 µg/mL
same,MIC,Klebsiella pneumoniae; comparator antibacterials,0.13 µg/mL
same,MIC,Proteus mirabilis; comparator antibacterials,0.5 µg/mL
same,MIC,[6]; comparator antibacterials,4 µg/mL
same,MIC,[9]; [14],0.5 µg/mL
same,MIC,[9]; [15],0.25 µg/mL
same,MIC,Klebsiella oxytoca; comparator antibacterials,≤ 0.06 µg/mL
same,MIC,Enterobacter aerogenes; comparator antibacterials,2 µg/mL
same,MIC,Enterobacter cloacae; comparator antibacterials,≤ 0.06 µg/mL
same,MIC,Alcaligenes xylosoxidans; comparator antibacterials,0.5 µg/mL
same,MIC,"Escherichia coli; E. coli 1619, comparator antibacterials",0.13 µg/mL
same,MIC,"Escherichia coli; Escherichia coli, E. coli 1619, comparator antibacterials, read-out: MIC",0.25 µg/mL
same,MIC,"Escherichia coli; Escherichia coli, E. coli 2788, comparator antibacterials, read-out: MIC",≤ 0.06 µg/mL
same,MIC,Serratia marcescens; comparator antibacterials,0.13 µg/mL
"NC[C@H]1O[C@H](O[C@H]2[C@H](O)[C@@H](O[C@H]3O[C@H](CO)[C@@H](O)[C@H](N)[C@H]3O)[C@H](N)C[C@@H]2N)[C@H](N)C[C@@H]1O [Tobramycin, tobramycin, reference compound]",MIC,Burkholderia cepacia; comparator antibacterials,> 128 µg/mL
same,MIC,Burkholderia cepacia; [13],64 µg/mL
same,MIC,[1]; comparator antibacterials,0.5 µg/mL
same,MIC,Klebsiella pneumoniae; comparator antibacterials,64 µg/mL
same,MIC,[2]; comparator antibacterials,0.5 µg/mL
same,MIC,[3]; comparator antibacterials,2 µg/mL
same,MIC,[4]; comparator antibacterials,1 µg/mL
same,MIC,Proteus mirabilis; comparator antibacterials,2 µg/mL
same,MIC,[5]; comparator antibacterials,2 µg/mL
same,MIC,[6]; comparator antibacterials,2 µg/mL
same,MIC,[8]; comparator antibacterials,8 to 32 µg/mL
same,MIC,[9]; [14],8 µg/mL
same,MIC,[9]; [15],2 µg/mL
same,MIC,Klebsiella oxytoca; comparator antibacterials,1 µg/mL
same,MIC,Enterobacter aerogenes; comparator antibacterials,64 µg/mL
same,MIC,Enterobacter cloacae; comparator antibacterials,0.06 µg/mL
same,MIC,Alcaligenes xylosoxidans; comparator antibacterials,64 µg/mL
same,MIC,[10]; comparator antibacterials,2 µg/mL
same,MIC,[11]; comparator antibacterials,64 µg/mL
same,MIC,Serratia marcescens; comparator antibacterials,2 µg/mL

# Reference: US7358359B2, “Antibacterial agents” (University of Washington, priority 2003, dated 2008)
